# Measured values from US8183263B2 (priority 2007, dated 2012).
# Test system: HCV replicon
# Test: HCV replicon replication assay (NPT level by captured ELISA)
# Format: cell-based
# Details: Hepatitis C virus, 72 h; Huh-7 HCV replicon-containing cells, three days incubation; read-out: Activity (inhibition of HCV replicon replication)
# Summary of the method: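 Huh-7 cells carrying HCV subgenomic replicon (NS3–NS5B, neo reporter) treated 3 days at 37 °C with 6 concentrations from 10 to 0.03 micromolar in G418-free medium, equal DMSO across wells. Replication measured on day four as NPTII level by in-cell captured ELISA on fixed cells; interferon alpha as positive control.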
row,Compound,EC50
1,"CCCCCCCCOc1ccc(N(N)c2nc(-c3cccnc3)c(F)s2)cc1C(F)(F)F [Cmp 120, 5-fluoro-2-(1-(4-(octyloxy)-3-(trifluoromethyl)phenyl)hydrazinyl)-4-(pyridin-3-yl)thiazole]",< 1 µM
2,"CCCCCCCCOc1ccc(Nc2nc(-c3cnc(OC)nc3)c(CN(C)C)s2)cc1C(F)(F)F [Cmp 121, 5-((dimethylamino)methyl)-4-(2-methoxypyrimidin-5-yl)-N-(4-(octyloxy)-3-(trifluoromethyl)phenyl)thiazol-2-amine]",1 to 10 µM
3,"CCCCCCCCC1Cc2ccc(Nc3nc(-c4cccnc4)cs3)cc2O1 (centres unmarked) [Cmp 123, N-(2-octyl-2,3-dihydrobenzofuran-6-yl)-4-(pyridin-3-yl)thiazol-2-amine]",< 1 µM
4,"CCCCCCCCC1Cc2ccc(Nc3nc(-c4ccc(C)nc4)cs3)cc2O1 (centres unmarked) [Cmp 124, 4-(6-methylpyridin-3-yl)-N-(2-octyl-2,3-dihydrobenzofuran-6-yl)thiazol-2-amine]",< 1 µM
5,"Cc1ccc(CCCCOc2cc(Nc3nc(-c4cccnc4)cs3)ccc2C(F)(F)F)cc1 [Cmp 125, 4-(pyridin-3-yl)-N-(3-(4-p-tolylbutoxy)-4-(trifluoromethyl)phenyl)thiazol-2-amine]",< 1 µM
6,Cc1ccc(CCCCOc2cc(Nc3nc(-c4cccnc4)c(F)s3)ccc2C(F)(F)F)cc1 [Cmp 126],< 1 µM
7,"Cc1ccc(OCCCc2ccc(Nc3nc(-c4cccnc4)c(F)s3)cc2C(F)(F)F)cc1 [Cmp 127, 5-fluoro-4-(pyridin-3-yl)-N-(4-(3-(p-tolyloxy)propyl)-3-(trifluoromethyl)phenyl)thiazol-2-amine]",< 1 µM
8,"CCCCCCCCc1cc2cc(Nc3nc(-c4cccnc4)c(F)s3)ccc2o1 [Cmp 128, 5-fluoro-N-(2-octylbenzofuran-5-yl)-4-(pyridin-3-yl)thiazol-2-amine]",< 1 µM
9,"CCCCCCCCC1Cc2ccc(Nc3nc(-c4cccnc4)c(F)s3)cc2O1 (centres unmarked) [Cmp 129, 5-fluoro-N-(2-octyl-2,3-dihydrobenzofuran-6-yl)-4-(pyridin-3-yl)thiazol-2-amine]",< 1 µM
10,"CC(=O)c1cc(Nc2nc(-c3cccnc3)c(F)s2)ccc1Oc1ccc(Cl)cc1 [Cmp 130, 1-(2-(4-chlorophenoxy)-5-(5-fluoro-4-(pyridin-3-yl)thiazol-2-ylamino)phenyl)ethanone]",< 1 µM
11,"CCc1ccc(Oc2ccc(Nc3nc(-c4cccnc4)c(F)s3)cc2C(C)=O)cc1 [Cmp 131, 1-(2-(4-ethylphenoxy)-5-(5-fluoro-4-(pyridin-3-yl)thiazol-2-ylamino)phenyl)ethanone]",< 1 µM
12,FC(F)(F)c1cc(Nc2nc(-c3cccnc3)cs2)ccc1CCCCOc1ccccc1 [Cmp 132],< 1 µM
13,"CCCCCCCCc1cc2ccc(Nc3nc(-c4cccnc4)c(F)s3)cc2o1 [Cmp 133, 5-fluoro-N-(2-octylbenzofuran-6-yl)-4-(pyridin-3-yl)thiazol-2-amine]",< 1 µM
14,"CCCCCCCCc1ccc(Nc2nc(-c3ccc(OC(=O)[C@@H](N)C(C)C)nc3)cs2)cc1C(F)(F)F [Cmp 135, (S)-5-(2-(4-octyl-3-(trifluoromethyl)phenylamino)thiazol-4-yl)pyridin-2-yl 2-amino-3-methylbutanoate]",1 to 10 µM
15,"Fc1sc(Nc2ccc(CCCCOc3ccccc3)c(C(F)(F)F)c2)nc1-c1cccnc1 [Cmp 136, 5-fluoro-N-(4-(4-phenoxybutyl)-3-(trifluoromethyl)phenyl)-4-(pyridin-3-yl)thiazo1-2-amine]",< 1 µM
16,"FC(F)(F)c1cc(Nc2nc(-c3cccnc3)cs2)ccc1OCCCCc1ccncc1 [Cmp 137, 4-(pyridin-3-yl)-N-(4-(4-(pyridin-4-yl)butoxy)-3-(trifluoromethyl)phenyl)thiazol-2-amine]",< 1 µM

# Same assay, conditions: Hepatitis C virus, Huh-7, 72 h, read-out: Activity (inhibition of HCV replicon replication)
row,Compound,EC50
1,"CCCCCCCCc1ccc(Nc2nc(-c3ccc(OP(=O)(OC)OC)nc3)cs2)cc1C(F)(F)F [Cmp 134, dimethyl 5-(2-(4-octyl-3-(trifluoromethyl)phenylamino)thiazol-4-yl)pyridin-2-yl phosphate]",< 1 µM
